Patent US20040067483A1, “Compositions, methods and kits for identying protein-protein interaction disrupting agents” (priority 2003, published 2004)

Target: T1, interaction between TGFR (RI) and FKPB12 (Homo sapiens, UniProt P62942)
T1 construct: expressed in transfected cells; host or cells: 293A cells
Assay: Mammalian reverse two-hybrid system, GFP reporter, stable cell line (pCMV-tetOP-AD-RI-IRES-BD-FKBP12)
Type: cell-based
Details: 293A cells; 1 μg/ml Dox, 48 hrs; FK506 100 nM, AG1478 2.5 μM; FIG. 2
Protocol: Green Fluorescence Protein (GFP). To directly assay the expression of GFP, cells were cultured in 96 or 384 well low fluorescence assay plates with 100 or 50 μl of DMEM medium. Dox and agents were added at concentrations described below. Following 48-hrs of treatment, the medium in each well was replaced with PBS. The intensity of GFP was directly measured at 485 mn excitation and 525 nm emission with a fluorescence multi-well plate reader (CytoFluor II, PerSeptive Biosystems or Wallac Victor V Stacker, Perkin Elmer).
The mammalian reverse two-hybrid system of the present invention was tested with this protein-protein interaction pair to evaluate if the effect of FK506 on disrupting the interaction can be detected. To achieve this, the cytoplasmic domain of the TGFR (RI) was fused with the transcriptional activation domain (AD) of VP16 and FKBP12 was fused with the Gal4 DNA binding domain (BD).
A stable cell line harboring the construct TetR-KRAB, GFP reporter construct, and the construct pCMV-tetOP-AD-RI-IRES-BD-FKBP12 was selected to evaluate the effect of drug molecule FK506 on the interaction between TGFR (RI) and FKPB12. The intensity of GFP expression was monitored following 48 hrs of treatment of the cells with the inducer Dox and the agent FK506.
Expression of the GFP reporter gene was evaluated following the treatment. […]

T1 sequence (P62942 whole entry): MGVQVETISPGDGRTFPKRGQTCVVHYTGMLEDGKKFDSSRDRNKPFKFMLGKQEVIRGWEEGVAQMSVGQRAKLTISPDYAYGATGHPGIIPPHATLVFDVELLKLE

Dox induced GFP expression (GFP reporter gene): no effect
Compound: COc1cc2ncnc(Nc3cccc(Cl)c3)c2cc1OC [AG1478]
